Here are results for one compound from article PMC13324451 (The Journal of Biological Chemistry, 2026).

Structures are written as SMILES.

The target in this assay is T1, RhsF-CT (Chromobacterium violaceum, UniProt Q7NY44).
T1 construct: gene CV_1431; C-terminal toxin domain, residues 1393-1513, 14 kDa; His6-TEV tag, apparently kept
In kind it is biochemical.

`NC(=O)c1ccc[n+]([C@@H]2O[C@H](COP(=O)(O)OP(=O)(O)OC[C@H]3O[C@@H](n4cnc5c(N)ncnc54)[C@H](O)[C@@H]3O)[C@@H](O)[C@H]2O)c1` [NAD^+]: the “RNA ADP-ribosylation, TBE-urea gel and anti-ADP-ribose immunoblot” value is “indicating that RhsF-CT can transfer ADP-ribose from NAD^+ to the RNA”.
